Assay results published in patent US20220304957A1, “ANTI-CANCER COMPOSITIONS AND METHODS OF USE” (Board of Supervisors of Louisiana State University and …, priority 2019, published 2022).

Columns and labels:
[1] = Stability in human blood (HPLC); assay type: in vitro ADME; details: 50 μM added, 37 °C, 48-hour time point
Experimental: Aliquots of 50 μM PP1 and FF in DMSO were added to 500 μl to heparinized human blood to a final concentration of 50 μM. Following incubation at 37° C. for the indicated time points, the samples were frozen at −80° C., and later prepared for HPLC-based detection of the compounds. Please note that FF is converted to FA in the presence of human blood. […] Data represent average values with standard deviation (n=3). panel B: Water solubility. FF and PP1, were added to water to a final concentration of 50 mM and sonicated in an ultrasonic bath (Branson 1510 Digital Heated Ultrasonic bath) for one hour at room temperature. The samples were then centrifuged for 10 minutes at 16000×g, and the supernatant filtered through 0.45 μm syringe filter. […] The PPAR transcriptional activity was determined in HepG2 cells by the JsTkpGL3 reporter plasmid, which contains a firefly luciferase gene driven by the PPRE, which consists of three copies of the J site from the apo-AII gene promoter. […] The luciferase activity was detected with Dual-Luciferase reporter assay system (Promega, Madison, Wis.), and the resulting luminescence measured with Synergy 2 microplate reader (BioTek, Winooski, Vt.). […]
In this experiment, 50 μM of PP1 and 50 μM of FF were incubated with human blood at […], at indicated time points. […] In contrast, nearly 25 μM of PP1 was still detected at the 48-hour time point (FIG. 4A; left panel).

Water solubility (HPLC) = assay type: physicochemical; details: room temperature, sonicated one hour
Experimental: Aliquots of 50 μM PP1 and FF in DMSO were added to 500 μl to heparinized human blood to a final concentration of 50 μM. Following incubation at 37° C. for the indicated time points, the samples were frozen at −80° C., and later prepared for HPLC-based detection of the compounds. Please note that FF is converted to FA in the presence of human blood. […] Data represent average values with standard deviation (n=3). panel B: Water solubility. FF and PP1, were added to water to a final concentration of 50 mM and sonicated in an ultrasonic bath (Branson 1510 Digital Heated Ultrasonic bath) for one hour at room temperature. The samples were then centrifuged for 10 minutes at 16000×g, and the supernatant filtered through 0.45 μm syringe filter. Water solubilized PP1 and FF were subsequently processed for HPLC analysis (see Methods). Data represent average values with standard deviation (n=3). panel C: Effects of PP compounds on PPAR responsive elements (PPRE). The PPAR transcriptional activity was determined in HepG2 cells by the JsTkpGL3 reporter plasmid, which contains a firefly luciferase gene driven by the PPRE, which consists of three copies of the J site from the apo-AII gene promoter. […] The luciferase activity was detected with Dual-Luciferase reporter assay system (Promega, Madison, Wis.), and the resulting luminescence measured with Synergy 2 microplate reader (BioTek, Winooski, Vt.). […]

## CN(CCO)C(=O)C(C)(C)Oc1ccc(C(=O)c2ccc(Cl)cc2)cc1 [PP1, 2-[4-(4-chlorobenzoyl)phenoxy]-N-(2-hydroxyethyl)-N,2-dimethylpropanamide]
[1]
  compound still detected in human blood: ~25 µM
Water solubility (HPLC)
  water solubility in comparison to FF: much better soluble in water
